From ChEMBL document CHEMBL1139192, “Novel bis(indolyl)maleimide pyridinophanes that are potent, selective inhibitors of glycogen synthase kinase-3” (Bioorg Med Chem Lett, 2007)

How the values were obtained:
[1] = tested on: Saccharomyces cerevisiae; test: Residual activity of yeast CK1 at 1 uM relative to control
[2] = target: Receptor-type tyrosine-protein kinase FLT3 (Homo sapiens) (UniProt P36888); test: Residual activity of human Flt3 at 1 uM relative to control
[3] = target: T1, Calcium/calmodulin-dependent protein kinase type IV (Homo sapiens) (UniProt Q16566); test: Residual activity of human CaMK4 at 1 uM relative to control
T1 sequence (whole entry): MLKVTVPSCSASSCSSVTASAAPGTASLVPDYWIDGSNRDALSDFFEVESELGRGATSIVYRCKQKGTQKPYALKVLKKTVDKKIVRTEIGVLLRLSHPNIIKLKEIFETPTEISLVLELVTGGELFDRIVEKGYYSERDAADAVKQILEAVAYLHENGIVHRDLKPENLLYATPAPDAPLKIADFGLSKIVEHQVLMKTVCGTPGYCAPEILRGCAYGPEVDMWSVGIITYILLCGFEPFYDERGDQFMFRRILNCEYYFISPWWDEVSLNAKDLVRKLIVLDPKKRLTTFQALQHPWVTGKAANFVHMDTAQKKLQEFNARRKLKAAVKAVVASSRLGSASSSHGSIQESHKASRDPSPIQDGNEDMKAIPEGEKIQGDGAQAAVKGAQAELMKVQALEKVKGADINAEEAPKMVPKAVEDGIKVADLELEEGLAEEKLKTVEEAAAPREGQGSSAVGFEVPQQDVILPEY

[4] = target: Protein kinase C eta type (Homo sapiens) (UniProt P24723); test: Residual activity of human PKCeta at 1 uM relative to control
[5] = species on record: Homo sapiens; test: Residual activity of human PKBgamma at 1 uM relative to control
[6] = target: Protein kinase C theta type (Homo sapiens, UniProt Q04759); test: Residual activity of human PKCtheta at 1 uM relative to control
[7] = species on record: Homo sapiens; test: Residual activity of human CDK6/Cyclin D at 1 uM relative to control
[8] = tested on: Tyrosine-protein kinase ABL1 (Homo sapiens), P00519 [T315I]; test: Residual activity of human Abl T315I mutant at 1 uM relative to control
[9] = target: Ribosomal protein S6 kinase alpha-1 (Rattus norvegicus) (UniProt Q63531); test: Inhibition of rat Rsk1 at 1 uM relative to control; values are per cent of control
[10] = species on record: Rattus norvegicus; test: Inhibition of rat CaMK2 at 1 uM relative to control; values are per cent of control
[11] = target: Tyrosine-protein kinase Lck (Homo sapiens) (UniProt P06239); test: Inhibition of human Lck at 1 uM relative to control; values are per cent of control
[12] = target: Mitogen-activated protein kinase 10 (Homo sapiens) (UniProt P53779); test: Inhibition of human JNK3 at 1 uM relative to control; values are per cent of control
[13] = target: T2, MAP kinase-activated protein kinase 5 (Homo sapiens) (UniProt Q8IW41); test: Inhibition of human PRAK at 1 uM relative to control; values are per cent of control
T2 sequence (whole entry): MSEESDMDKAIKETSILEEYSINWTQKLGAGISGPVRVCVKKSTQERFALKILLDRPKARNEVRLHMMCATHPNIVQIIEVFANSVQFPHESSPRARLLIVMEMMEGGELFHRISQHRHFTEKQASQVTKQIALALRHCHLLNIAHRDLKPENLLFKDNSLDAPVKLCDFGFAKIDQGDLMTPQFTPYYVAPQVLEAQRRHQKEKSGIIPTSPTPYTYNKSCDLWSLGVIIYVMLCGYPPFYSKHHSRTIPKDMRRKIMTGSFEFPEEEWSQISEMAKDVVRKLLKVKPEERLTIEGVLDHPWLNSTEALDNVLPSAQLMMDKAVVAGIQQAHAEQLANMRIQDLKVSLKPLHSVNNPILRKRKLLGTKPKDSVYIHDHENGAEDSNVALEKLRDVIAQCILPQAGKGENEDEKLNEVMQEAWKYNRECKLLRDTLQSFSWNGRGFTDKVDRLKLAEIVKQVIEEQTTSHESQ

[14] = target: T3, Mitogen-activated protein kinase 13 (Homo sapiens) (UniProt O15264); test: Inhibition of human SAPK4 at 1 uM relative to control; values are per cent of control
T3 sequence (whole entry): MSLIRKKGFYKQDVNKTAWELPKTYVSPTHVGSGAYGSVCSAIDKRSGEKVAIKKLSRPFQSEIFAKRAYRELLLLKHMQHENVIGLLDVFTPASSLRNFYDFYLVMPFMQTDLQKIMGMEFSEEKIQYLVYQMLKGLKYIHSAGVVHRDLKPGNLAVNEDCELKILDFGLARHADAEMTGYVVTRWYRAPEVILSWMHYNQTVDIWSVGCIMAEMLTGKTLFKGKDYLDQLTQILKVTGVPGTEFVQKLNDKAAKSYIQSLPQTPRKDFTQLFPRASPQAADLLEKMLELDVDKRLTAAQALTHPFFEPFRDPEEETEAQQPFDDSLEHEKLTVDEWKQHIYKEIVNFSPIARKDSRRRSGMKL

Protein kinase C theta type, sequence (Q04759 whole entry, looked up): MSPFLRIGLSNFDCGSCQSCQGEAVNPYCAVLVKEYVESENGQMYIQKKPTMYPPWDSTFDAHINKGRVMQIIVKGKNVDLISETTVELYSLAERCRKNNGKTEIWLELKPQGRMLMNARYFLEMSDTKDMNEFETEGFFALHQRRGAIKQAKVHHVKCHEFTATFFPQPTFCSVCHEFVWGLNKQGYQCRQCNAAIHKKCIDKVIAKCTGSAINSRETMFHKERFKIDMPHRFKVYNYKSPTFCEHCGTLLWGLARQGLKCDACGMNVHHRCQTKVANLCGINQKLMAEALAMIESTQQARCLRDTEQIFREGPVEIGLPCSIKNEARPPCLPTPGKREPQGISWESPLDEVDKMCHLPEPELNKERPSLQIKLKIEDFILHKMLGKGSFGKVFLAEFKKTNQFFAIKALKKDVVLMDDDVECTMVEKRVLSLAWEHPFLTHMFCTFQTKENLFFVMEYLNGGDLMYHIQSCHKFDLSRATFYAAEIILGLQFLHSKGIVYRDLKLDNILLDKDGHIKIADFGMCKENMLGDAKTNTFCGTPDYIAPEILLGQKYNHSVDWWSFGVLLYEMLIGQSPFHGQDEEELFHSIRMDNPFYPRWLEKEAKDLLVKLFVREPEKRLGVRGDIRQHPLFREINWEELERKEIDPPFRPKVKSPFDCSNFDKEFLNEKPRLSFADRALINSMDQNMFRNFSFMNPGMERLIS
Mitogen-activated protein kinase 10 (Homo sapiens), sequence (P53779 whole entry): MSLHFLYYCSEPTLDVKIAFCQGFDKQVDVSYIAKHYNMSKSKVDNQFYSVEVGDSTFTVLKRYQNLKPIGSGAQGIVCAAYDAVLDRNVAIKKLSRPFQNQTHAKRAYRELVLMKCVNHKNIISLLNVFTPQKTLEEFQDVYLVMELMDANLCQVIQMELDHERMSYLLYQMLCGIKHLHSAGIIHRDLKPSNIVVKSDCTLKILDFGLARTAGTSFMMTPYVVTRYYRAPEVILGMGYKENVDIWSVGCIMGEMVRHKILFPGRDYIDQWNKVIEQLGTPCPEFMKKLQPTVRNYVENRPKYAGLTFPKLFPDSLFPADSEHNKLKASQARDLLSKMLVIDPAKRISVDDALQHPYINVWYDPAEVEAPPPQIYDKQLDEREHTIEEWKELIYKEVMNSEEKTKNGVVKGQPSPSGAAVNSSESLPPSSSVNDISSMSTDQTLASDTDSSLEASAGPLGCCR
Ribosomal protein S6 kinase alpha-1 (Rattus norvegicus), sequence (Q63531 whole entry): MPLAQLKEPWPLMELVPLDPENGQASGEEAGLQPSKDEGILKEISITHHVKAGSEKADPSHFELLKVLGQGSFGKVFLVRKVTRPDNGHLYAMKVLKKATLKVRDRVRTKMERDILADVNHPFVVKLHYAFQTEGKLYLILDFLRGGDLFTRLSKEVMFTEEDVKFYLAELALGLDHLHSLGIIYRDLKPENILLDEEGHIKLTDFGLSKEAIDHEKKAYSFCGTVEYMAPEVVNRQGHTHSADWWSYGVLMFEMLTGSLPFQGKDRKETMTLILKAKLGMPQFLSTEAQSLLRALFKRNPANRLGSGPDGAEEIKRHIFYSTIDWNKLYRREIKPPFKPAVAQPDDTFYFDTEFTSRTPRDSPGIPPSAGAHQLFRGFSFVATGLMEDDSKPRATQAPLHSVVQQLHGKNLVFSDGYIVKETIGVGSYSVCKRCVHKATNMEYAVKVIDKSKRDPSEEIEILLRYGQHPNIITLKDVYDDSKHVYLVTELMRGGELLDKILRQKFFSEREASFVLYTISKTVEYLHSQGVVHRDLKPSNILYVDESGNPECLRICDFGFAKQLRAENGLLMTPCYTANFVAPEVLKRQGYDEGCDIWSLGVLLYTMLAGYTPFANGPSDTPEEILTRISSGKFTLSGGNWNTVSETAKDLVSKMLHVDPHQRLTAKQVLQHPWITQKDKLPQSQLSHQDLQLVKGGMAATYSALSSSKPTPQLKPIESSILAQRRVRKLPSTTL
Receptor-type tyrosine-protein kinase FLT3 (Homo sapiens), sequence (P36888 whole entry): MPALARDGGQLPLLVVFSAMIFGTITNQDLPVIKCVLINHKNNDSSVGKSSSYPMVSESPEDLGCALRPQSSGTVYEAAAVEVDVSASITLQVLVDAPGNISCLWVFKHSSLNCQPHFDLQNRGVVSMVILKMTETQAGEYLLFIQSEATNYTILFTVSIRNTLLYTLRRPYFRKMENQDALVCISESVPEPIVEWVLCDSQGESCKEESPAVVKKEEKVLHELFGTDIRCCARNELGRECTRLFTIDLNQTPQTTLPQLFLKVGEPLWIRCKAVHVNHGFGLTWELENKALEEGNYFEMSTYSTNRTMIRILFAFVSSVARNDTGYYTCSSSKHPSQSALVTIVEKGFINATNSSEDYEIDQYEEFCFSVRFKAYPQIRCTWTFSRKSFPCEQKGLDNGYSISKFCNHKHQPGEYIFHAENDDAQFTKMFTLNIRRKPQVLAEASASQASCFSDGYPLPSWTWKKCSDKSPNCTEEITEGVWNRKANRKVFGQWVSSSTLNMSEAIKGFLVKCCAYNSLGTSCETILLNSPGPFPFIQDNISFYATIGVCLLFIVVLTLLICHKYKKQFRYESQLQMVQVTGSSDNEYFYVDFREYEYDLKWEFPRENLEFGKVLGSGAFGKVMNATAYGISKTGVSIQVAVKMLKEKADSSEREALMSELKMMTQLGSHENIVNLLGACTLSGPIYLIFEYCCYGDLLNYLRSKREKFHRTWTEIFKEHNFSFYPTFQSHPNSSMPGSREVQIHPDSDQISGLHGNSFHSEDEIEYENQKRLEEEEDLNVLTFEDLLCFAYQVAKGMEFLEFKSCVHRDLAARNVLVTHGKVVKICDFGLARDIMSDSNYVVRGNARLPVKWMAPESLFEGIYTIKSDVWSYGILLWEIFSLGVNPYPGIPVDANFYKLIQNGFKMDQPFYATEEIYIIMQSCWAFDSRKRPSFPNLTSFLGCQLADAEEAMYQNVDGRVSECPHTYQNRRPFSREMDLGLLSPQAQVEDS
Tyrosine-protein kinase Lck (Homo sapiens), sequence (P06239 2-509 limits assumed): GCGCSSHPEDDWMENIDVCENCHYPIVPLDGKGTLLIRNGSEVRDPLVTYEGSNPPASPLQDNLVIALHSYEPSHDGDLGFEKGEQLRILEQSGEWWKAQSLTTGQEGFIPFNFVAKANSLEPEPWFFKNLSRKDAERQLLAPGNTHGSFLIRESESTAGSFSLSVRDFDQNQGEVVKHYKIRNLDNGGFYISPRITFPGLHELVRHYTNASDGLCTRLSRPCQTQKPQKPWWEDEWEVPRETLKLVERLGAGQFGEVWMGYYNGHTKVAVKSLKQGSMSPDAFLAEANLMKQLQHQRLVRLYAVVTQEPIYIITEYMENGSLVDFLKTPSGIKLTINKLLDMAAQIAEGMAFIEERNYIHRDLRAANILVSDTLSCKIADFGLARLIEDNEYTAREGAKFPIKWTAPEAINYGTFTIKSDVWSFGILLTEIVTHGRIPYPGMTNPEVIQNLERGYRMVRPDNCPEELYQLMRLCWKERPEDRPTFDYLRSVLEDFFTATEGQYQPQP
Protein kinase C eta type (Homo sapiens), sequence (P24723 whole entry): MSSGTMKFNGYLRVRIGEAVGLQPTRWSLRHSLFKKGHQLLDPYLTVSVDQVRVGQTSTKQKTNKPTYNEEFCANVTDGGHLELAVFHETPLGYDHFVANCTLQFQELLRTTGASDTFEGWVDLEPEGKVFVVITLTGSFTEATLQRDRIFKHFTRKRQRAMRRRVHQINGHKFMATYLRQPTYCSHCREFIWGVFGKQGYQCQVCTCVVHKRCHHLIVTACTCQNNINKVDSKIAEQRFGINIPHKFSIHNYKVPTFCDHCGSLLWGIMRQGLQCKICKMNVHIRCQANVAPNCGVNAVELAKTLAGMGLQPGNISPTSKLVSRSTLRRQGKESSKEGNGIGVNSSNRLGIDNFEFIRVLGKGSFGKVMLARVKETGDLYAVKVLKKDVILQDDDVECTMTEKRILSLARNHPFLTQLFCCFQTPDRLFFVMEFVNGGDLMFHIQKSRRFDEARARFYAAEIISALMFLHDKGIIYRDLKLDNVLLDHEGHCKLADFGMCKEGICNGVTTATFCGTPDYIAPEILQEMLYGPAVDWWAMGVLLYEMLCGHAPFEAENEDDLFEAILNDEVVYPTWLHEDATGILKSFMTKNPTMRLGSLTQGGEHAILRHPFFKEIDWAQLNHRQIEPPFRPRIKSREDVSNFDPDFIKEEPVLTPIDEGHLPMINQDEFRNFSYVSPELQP

| Compound | residual activity [1] | residual activity [2] | residual activity [3] | residual activity [4] | residual activity [5] | residual activity [6] | residual activity [7] | residual activity [8] | residual activity [9] | residual activity [10] | residual activity [11] | residual activity [12] | residual activity [13] | residual activity [14] |
| --- | --- | --- | --- | --- | --- | --- | --- | --- | --- | --- | --- | --- | --- | --- |
| CN(C)c1nc2ccc1CCCn1cc(c3ccccc31)C1=C(C(=O)NC1=O)c1cn(c3ccccc13)CC2 | 91% | 86% | 92% | 104% | 93% | 21% | 86% | 100% | 37% | 92% | 96% | 96% | 88% | 101% |
| CN(C)c1cc2cc(n1)CCCn1cc(c3ccccc31)C1=C(C(=O)NC1=O)c1cn(c3ccccc13)CCC2 | 98% | 71% | 113% | 117% | 106% | 27% | 74% | 79% | 7% | 107% | 100% | 107% | 96% | 104% |
| O=C1NC(=O)C2=C1c1cn(c3ccccc13)CCCc1ccc(c(N3CCCC3)n1)CCCn1cc2c2ccccc21 |  | 85% | 99% | 90% | 105% | 33% | 92% | 103% | 67% |  | 90% | 102% | 102% | 102% |
| O=C1NC(=O)C2=C1c1cn(c3ccccc13)CCCc1cc(nc(N3CCCC3)c1)CCCn1cc2c2ccccc21 | 99% | 77% | 112% | 121% | 103% | 29% | 82% | 77% | 5% | 109% | 99% | 103% | 101% | 102% |
